One data set concerns PNA-Capture. Description: Mismatch analysis with microsphere sensor loaded with PNA-based capture strand (FIG. 8). It is filed as binding. The settings on record: competition with DNA-QTL for PNA-Cap; 40° C., total well volume 200 μL. How it is done: The approach used in this example involves the competition of quencher labeled target with target for a complementary capture strand on the surface of sensing microspheres.
FIG. 8 is a graph showing mismatch analysis with a microsphere sensor loaded with a PNA-based capture strand (denoted “PNA-Cap”) having a structure shown below. The experiments were performed at 40° C. with a total well volume of 200 μL.

Data set [1] has as its target T1, β-secretase enzyme (Homo sapiens, UniProt P56817). The following applies: 30 minutes at CRT, Sensor SS, excitation 440 nm, emission 530 nm. Here is the method: A QTL solution sensor (“Sensor SS”) was prepared by mixing together 56.5 nmol of Avidin (Biotin binding protein, BBP) and 848 nmol of biotinylated PPE polymer (1) in a total volume of 11.3 mL and incubating at CRT for 24 hours. The polymer and the BBP combine with each other through the biotin-avidin interaction to form stable entities. The solution sensor thus prepared was diluted appropriately with buffer at the beginning of each experiment. The structure of polymer (1) is shown below: [drawing 4]
To 5 μL of a 400 nM solution of BSEC-1 (structure shown below) in assay buffer in a 384-well plate was added 30 ng of β-secretase enzyme dissolved in 5 μL of assay buffer.
The mixture was made in triplicate and incubated for 30 minutes at CRT. The control wells contained only peptide and no enzyme. After incubation, a 100-fold dilution of the above solution sensor was added at 20 μL to each well. The plate was shaken inside the microplate reader and the wells were probed by exciting the polymer at 440 nm and measuring the emission intensity at 530 nm using a 475 nm cut-off filter. […] The difference in fluorescence was a measure of enzyme activity.

Data set [2] deals with T1, β-secretase enzyme. The following applies: 30 minutes at CRT, Sensor YY, excitation 440 nm, emission 576 nm. Here is the method:
The resulting solution sensor (“Sensor YY”) was made at the beginning of each experiment by incubating a 200-fold dilution of the master stock of “Sensor SS” with BRPE in a ratio that would provide 250 fmol of the latter in 40 μL of the mixture. To 5 μL of a 300 nM solution of BSEC-3 in assay buffer was added 30 ng of β-secretase enzyme in 5 μL of assay buffer. BSEC-3 has a polypeptide structure as set forth above. After incubating the control and sample mixtures for 30 minutes at CRT, 40 μL of the doped solution sensor (Sensor YY) was added to each well. The plate was shaken inside the plate reader for 60 seconds and the wells were probed for fluorescence intensity by exciting the polymer at 440 nm and measuring the emission intensity at 576 nm using a 475 nm cut-off filter. […] This observed difference was a measure of enzyme activity.

T1 sequence (P56817 46-501): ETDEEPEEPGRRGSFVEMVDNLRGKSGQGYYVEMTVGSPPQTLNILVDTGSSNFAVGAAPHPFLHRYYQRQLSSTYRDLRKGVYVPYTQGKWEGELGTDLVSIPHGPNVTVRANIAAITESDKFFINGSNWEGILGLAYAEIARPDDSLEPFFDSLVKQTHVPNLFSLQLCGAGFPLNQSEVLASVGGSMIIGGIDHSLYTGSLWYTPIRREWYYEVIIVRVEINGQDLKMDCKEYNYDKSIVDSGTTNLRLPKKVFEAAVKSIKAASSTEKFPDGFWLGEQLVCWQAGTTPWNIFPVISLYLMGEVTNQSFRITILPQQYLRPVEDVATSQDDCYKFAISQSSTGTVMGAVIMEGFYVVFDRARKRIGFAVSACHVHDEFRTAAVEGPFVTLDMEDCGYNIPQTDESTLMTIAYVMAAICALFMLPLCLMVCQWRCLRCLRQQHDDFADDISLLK

The substance β-secretase enzyme showed an average RFU (polymer emission at 530 nm, Sensor SS) after 30 min incubation of 400 nM BSEC-1 with 30 ng β-secretase; control wells with peptide only gave 5,400±200 in the data set with BSEC-1 of 8350 ± 200 RFU. For the same substance, the average RFU (emission at 576 nm, BRPE-doped Sensor YY) after 30 min incubation of 300 nM BSEC-3 with 30 ng β-secretase; control wells gave 5,200±200 in the data set on BSEC-3 was 14500 ± 200 RFU. On to “5′-TGCATATTTAATGGAATTTA-3′ (TGCATATTTAATGGAATTTA; listed as DNA, chemistry not fully specified; the letters are possibly those of the target site) [AA double mismatch target]”, for which the “relative fluorescence with increasing amounts of target” value in the data set with PNA-Capture is given as “observed for all targets except”. Same read-out and setting: for “5′-TGCATTTTTAATGGTATTTA-3′ (TGCATTTTTAATGGTATTTA; listed as DNA, chemistry not fully specified; the letters are possibly those of the target site) [perfect complement target]” the value was “much higher”. Regarding “(QSY7)-T-E-E-O-S-E-V-N-L-D-A-E-F-(K-Biotin)-OH [BSEC-1]”, the “average RFU value, sample wells containing enzyme” value on β-secretase enzyme [1] (5 μL of 400 nM peptide + 30 ng β-secretase) is given as 8,350±200 RFU. Besides, the “average RFU value, control wells (only peptide and no enzyme)” value on β-secretase enzyme [1] (5 μL of 400 nM peptide, no enzyme) is 5,400±200 RFU.

Regarding “(AZO)-T-E-E-I-S-E-V-N-L-D-A-E-F-(K-Biotin)-OH [BSEC-3]”, the “RFU, sample wells containing enzyme” value on β-secretase enzyme [2] (5 μL of 300 nM peptide + 30 ng β-secretase) is recorded as 14,500±200 RFU. The “average RFU value, control wells” value at β-secretase enzyme [2] (5 μL of 300 nM peptide, no enzyme) is on record as 5,200±200 RFU.

(Values after patent US20040175768A1, “Methods of biosensing using fluorescent polymers and quencher-tether-ligand bioconjugates” (priority 2002, published 2004).)
